# In patent US20180184654A1, “Pesticidal Compositions Comprising a Triazole Compound” (BASF Agro B.V., priority 2015, published 2018):
# What was measured:
# [1] = test system: Septoria tritici; assay: Microtest: activity against leaf blotch on wheat caused by Septoria tritici (Septtr); type: cell-based; conditions: MTP, 405 nm, 7 days after inoculation
# Method: (§1) The active compounds were formulated separately as a stock solution having a concentration of 10000 ppm in dimethyl sulfoxide.
# (§2) The stock solutions were mixed according to the ratio, pipetted onto a micro titer plate (MTP) and diluted with water to the stated concentrations. A spore suspension of Septoria tritici in an aqueous biomalt or yeast-bactopeptone-glycerine solution was then added. The plates were placed in a water vapor-saturated chamber at a temperature of 18° C. Using an absorption photometer, the MTPs were measured at 405 nm 7 days after the inoculation.
# (§3) The measured parameters were compared to the growth of the active compound-free control variant (100%) and the fungus-free and active compound-free blank value to determine the relative growth in % of the pathogens in the respective active compounds.
# (§4) These percentages were converted into efficacies.
# (§5) The expected efficacies of active compound mixtures were determined using Colby's formula [R. S. Colby, “Calculating synergistic and antagonistic responses of herbicide combinations”, Weeds 15, 20-22 (1967)] and compared with the observed efficacies.
# [2] = test system: Leptosphaeria nodorum; assay: Microtest: activity against wheat leaf spots caused by Leptosphaeria nodorum (Leptno); type: cell-based; conditions: MTP, 405 nm, 7 days after inoculation
# Method: as §1
# as §2, with “Leptosphaeria nodorum” for “Septoria tritici”
# as §3, §4, §5
SMILES,Observed efficacy ([1]; single compound at 4 ppm) [%],Observed efficacy ([2]; single compound at 63 ppm) [%],Observed efficacy ([1]; single compound at 0.001 ppm) [%],Observed efficacy ([2]; single compound at 0.016 ppm) [%],Observed efficacy ([1]; single compound at 16 ppm) [%]
"CCN(C(=O)c1cnn(C(C)C(C)C)c1C)c1ccnnc1 (stereo not shown) [II-2, 1-(1,2-dimethylpropyl)-N-ethyl-5-methyl-N-pyridazin-4-yl-pyrazole-4-carboxamide]",7,7,,,
"CC(O)(Cn1cncn1)c1ccc(Oc2ccc(Cl)cc2)cc1C(F)(F)F (stereo not shown) [I-3, 2-[4-(4-chlorophenoxy)-2-(trifluoromethyl)phenyl]-1-(1,2,4-triazol-1-yl)propan-2-ol]",,,6,23,
"CCN(C(=O)c1cnn(C(C)C(C)F)c1C)c1ccnnc1 (stereo not shown) [II-5, N-ethyl-1-(2-fluoro-1-methyl-propyl)-5-methyl-N-pyridazin-4-yl-pyrazole-4-carboxamide]",,12,,,9
"CCN(C(=O)c1cnn(C(C)C2(C#N)CC2)c1C)c1ccnnc1 (stereo not shown) [II-4, 1-[1-(1-cyanocyclopropyl)ethyl]-N-ethyl-5-methyl-N-pyridazin-4-yl-pyrazole-4-carboxamide]",,2,,,
